# Laboratory results as given in US20250313579A1, “LIGAND COMPOUNDS COMPRISING A CHELATING GROUP AS A BRIDGING GROUP” (Technische Universität München, priority 2021, published 2025).
# Experiment: Octanol-water distribution coefficient (LogDpH=7.4)
# Format: physicochemical
# Details: n-octanol/PBS pH 7.4; radioactive ligand
# Protocol: This distribution coefficient may be determined by measuring the equilibrium distribution, e.g. at room temperature (20° C.o) of a compound in accordance with the invention in a two-phase system containing equal amounts, such as 1.00 ml each, of n-octanol and PBS (pH=7.4), and calculating the logD7.4 value as log 10 (concentration in octanol/concentration in PBS). Instead of the (absolute) concentration of the compound in accordance with the invention in the octanol and the PBS, a parameter which is proportional to the concentration of the compound in each phase may also be used for the calculation, such as the activity of radiation if the compound comprises a radioactive moiety, e.g. a radioactive chelate.
# The radioactive ligand of interest (0.7-1.0 MBq) is given to a mixture of n-octanol and PBS (1 ml, 1/1; v/V) in a 1.5 ml reaction tube and shaken vigorously for 3 min. The resulting mixture is centrifuged (9000 rpm, 5 min, RT), and 100 μl of the octanol and PBS phases isolated separately.
# Quantification occurs by the determination of the activity of each isolated probe in a γ-counter. The LogDpH=7.4 value is determined by the following equation:
# The determination of the final LogDpH=7.4 value is executed in octets. The mean value and standard deviation are determined after the removal of outlying values.
structure (smiles),measurement,value
"C[C@@H](O)[C@H](NC(=O)[C@@H]1CSSC[C@H](NC(=O)[C@@H](Cc2ccccc2)NC(=O)CN2CCN(CC(=O)O)CCN(CC(=O)NCCCC[C@@H](NC(=O)C[N+](C)(C)Cc3ccc([Si](F)(C(C)(C)C)C(C)(C)C)cc3)C(=O)O)CCN(CC(=O)O)CC2)C(=O)N[C@@H](Cc2ccc(O)cc2)C(=O)N[C@H](Cc2c[nH]c3ccccc23)C(=O)N[C@@H](CCCCN)C(=O)N[C@@H]([C@@H](C)O)C(=O)N1)C(=O)O [[Ga]01, N-SiFAlin-N,N-Me2-Gly-D-Lys(trans-[^natGa] DOTA-TATE)-OH, metal not drawn]",LogDpH=7.4,−1.19 ± 0.07
"C[C@@H](O)[C@H](NC(=O)[C@@H]1CSSC[C@H](NC(=O)[C@@H](Cc2ccccc2)NC(=O)CN2CCN3CCN(CC(=O)NCCCC[C@@H](NC(=O)[C@@H](CCC(=O)O)NC(=O)[C@@H](CNC(=O)C[N+](C)(C)Cc4ccc([Si](F)(C(C)(C)C)C(C)(C)C)cc4)NC(=O)[C@@H](CCC(=O)O)NC(=O)[C@@H](CCC(=O)O)NC(=O)[C@H](N)CCC(=O)O)C(=O)O)CCN(CC2)CC(=O)[O][Ga+][O]C(=O)C3)C(=O)N[C@@H](Cc2ccc(O)cc2)C(=O)N[C@H](Cc2c[nH]c3ccccc23)C(=O)N[C@@H](CCCCN)C(=O)N[C@@H]([C@@H](C)O)C(=O)N1)C(=O)O [[Ga]08, H-D-Glu-D-Glu-D-Glu-D-Dap(N-SiFAlin-N,N-Me2-Gly)-D-Glu-D-Lys(trans-[^natGa] DOTA-TATE)-OH]",LogDpH=7.4,−2.07 ± 0.04
"C[C@@H](O)[C@H](NC(=O)[C@@H]1CSSC[C@H](NC(=O)[C@@H](Cc2ccccc2)NC(=O)CN2CCN3CCN(CC(=O)NCCCC[C@@H](NC(=O)[C@@H](CNC(=O)C[N+](C)(C)Cc4ccc([Si](F)(C(C)(C)C)C(C)(C)C)cc4)NC(=O)[C@@H](CN)NC(=O)[C@@H](CCC(=O)O)NC(=O)[C@H](N)CCC(=O)O)C(=O)O)CCN(CC2)CC(=O)[O][Ga+][O]C(=O)C3)C(=O)N[C@@H](Cc2ccc(O)cc2)C(=O)N[C@H](Cc2c[nH]c3ccccc23)C(=O)N[C@@H](CCCCN)C(=O)N[C@@H]([C@@H](C)O)C(=O)N1)C(=O)O [[Ga]05, H-D-Glu-D-Glu-D-Dap-D-Dap(N-SiFAlin-N,N-Me2-Gly)-D-Lys(trans-[^natGa] DOTA-TATE)-OH]",LogDpH=7.4,−2.12 ± 0.06
"C[C@@H](O)[C@H](NC(=O)[C@@H]1CSSC[C@H](NC(=O)[C@@H](Cc2ccccc2)NC(=O)CN2CCN(CC(=O)O)CCN(CC(=O)NCCCC[C@@H](NC(=O)[C@@H](CNC(=O)C[N+](C)(C)Cc3ccc([Si](F)(C(C)(C)C)C(C)(C)C)cc3)NC(=O)[C@@H](CN)NC(=O)[C@@H](CCC(=O)O)NC(=O)[C@H](N)CCC(=O)O)C(=O)O)CCN(CC(=O)O)CC2)C(=O)N[C@@H](Cc2ccc(O)cc2)C(=O)N[C@H](Cc2c[nH]c3ccccc23)C(=O)N[C@@H](CCCCN)C(=O)N[C@@H]([C@@H](C)O)C(=O)N1)C(=O)O [Compound 05, H-D-Glu-D-Glu-D-Dap-D-Dap(N-SiFAlin-N,N-Mez-Gly)-D-Lys(trans-DOTA-TATE)-OH]",LogDpH=7.4,−1.96 ± 0.06
"C[C@@H](O)[C@H](NC(=O)[C@@H]1CSSC[C@H](NC(=O)[C@@H](Cc2ccccc2)NC(=O)CN2CCN(CC(=O)O)CCN(CC(=O)NCCCC[C@@H](NC(=O)[C@@H](CNC(=O)C[N+](C)(C)Cc3ccc([Si](F)(C(C)(C)C)C(C)(C)C)cc3)NC(=O)[C@@H](CCCCN)NC(=O)[C@@H](CCC(=O)O)NC(=O)[C@H](N)CCC(=O)O)C(=O)O)CCN(CC(=O)O)CC2)C(=O)N[C@@H](Cc2ccc(O)cc2)C(=O)N[C@H](Cc2c[nH]c3ccccc23)C(=O)N[C@@H](CCCCN)C(=O)N[C@@H]([C@@H](C)O)C(=O)N1)C(=O)O [Compound 06, H-D-Glu-D-Glu-D-Lys-D-Dap(N-SiFAlin-N,N-Mez-Gly)-D-Lys(trans-DOTA-TATE)-OH]",LogDpH=7.4,−2.36 ± 0.03
"C[C@@H](O)[C@H](NC(=O)[C@@H]1CSSC[C@H](NC(=O)[C@@H](Cc2ccccc2)NC(=O)CN2CCN(CC(=O)O)CCN(CC(=O)NCCCC[C@@H](NC(=O)[C@@H](CNC(=O)C[N+](C)(C)Cc3ccc([Si](F)(C(C)(C)C)C(C)(C)C)cc3)NC(=O)[C@@H](CCC(=O)O)NC(=O)[C@@H](CCC(=O)O)NC(=O)[C@@H](CCC(=O)O)NC(=O)[C@]3(O)C[C@@H](O)[C@@H](O)[C@H](O)C3)C(=O)O)CCN(CC(=O)O)CC2)C(=O)N[C@@H](Cc2ccc(O)cc2)C(=O)N[C@H](Cc2c[nH]c3ccccc23)C(=O)N[C@@H](CCCCN)C(=O)N[C@@H]([C@@H](C)O)C(=O)N1)C(=O)O [[Ga]09, D-(−)-quinic acid-D-Glu-D-Glu-D-Glu-D-Dap(N-SiFAlin-N,N-Me2-Gly)-D-Lys(trans-[^natGa] DOTA-TATE)-OH, metal not drawn]",LogDpH=7.4,−2.28 ± 0.04
"C[C@@H](O)[C@H](NC(=O)[C@@H]1CSSC[C@H](NC(=O)[C@@H](Cc2ccccc2)NC(=O)CN2CCN(CC(=O)O)CCN(CC(=O)NCCCC[C@@H](NC(=O)[C@@H](CNC(=O)C[N+](C)(C)Cc3ccc([Si](F)(C(C)(C)C)C(C)(C)C)cc3)NC(=O)[C@@H](CCCNC(N)=O)NC(=O)[C@@H](CCCNC(N)=O)NC(=O)[C@H](N)CCC(=O)O)C(=O)O)CCN(CC(=O)O)CC2)C(=O)N[C@@H](Cc2ccc(O)cc2)C(=O)N[C@H](Cc2c[nH]c3ccccc23)C(=O)N[C@@H](CCCCN)C(=O)N[C@@H]([C@@H](C)O)C(=O)N1)C(=O)O [[Ga]04, H-D-Glu-D -Cit-D -Cit-D-Dap(N-SiFAlin-N,N-Mez-Gly)-D-Lys(trans-[^natGa] DOTA-TATE)-OH, metal not drawn]",LogDpH=7.4,−2.30 ± 0.03
"C[C@@H](O)[C@H](NC(=O)[C@@H]1CSSC[C@H](NC(=O)[C@@H](Cc2ccccc2)NC(=O)CN2CCN3CCN(CC(=O)NCCCC[C@@H](NC(=O)[C@@H](CNC(=O)C[N+](C)(C)Cc4ccc([Si](F)(C(C)(C)C)C(C)(C)C)cc4)NC(=O)[C@@H](CCCCN)NC(=O)[C@@H](CCC(=O)O)NC(=O)[C@H](N)CCC(=O)O)C(=O)O)CCN(CC2)CC(=O)[O][Ga+][O]C(=O)C3)C(=O)N[C@@H](Cc2ccc(O)cc2)C(=O)N[C@H](Cc2c[nH]c3ccccc23)C(=O)N[C@@H](CCCCN)C(=O)N[C@@H]([C@@H](C)O)C(=O)N1)C(=O)O [[Ga]06, H-D-Glu-D-Glu-D-Lys-D-Dap(N-SiFAlin-N, N-Me2-Gly)-D-Lys(trans-[^natGa] DOTA-TATE)-OH]",LogDpH=7.4,−2.28 ± 0.04
"C[C@@H](O)[C@H](NC(=O)[C@@H]1CSSC[C@H](NC(=O)[C@@H](Cc2ccccc2)NC(=O)CN2CCN3CCN(CC(=O)NC[C@@H](NC(=O)C[N+](C)(C)Cc4ccc([Si](F)(C(C)(C)C)C(C)(C)C)cc4)C(=O)O)CCN(CC2)CC(=O)[O][Ga+][O]C(=O)C3)C(=O)N[C@@H](Cc2ccc(O)cc2)C(=O)N[C@H](Cc2c[nH]c3ccccc23)C(=O)N[C@@H](CCCCN)C(=O)N[C@@H]([C@@H](C)O)C(=O)N1)C(=O)O [[Ga]02, N-SiFAlin-N, N-Me2-Gly-D-Dap(trans-[^natGa] DOTA-TATE)-OH]",LogDpH=7.4,−1.03 ± 0.04
"C[C@@H](O)[C@H](NC(=O)[C@@H]1CSSC[C@H](NC(=O)[C@@H](Cc2ccccc2)NC(=O)CN2CCN3CCN(CC(=O)NCCCC[C@@H](NC(=O)[C@@H](CNC(=O)C[N+](C)(C)Cc4ccc([Si](F)(C(C)(C)C)C(C)(C)C)cc4)NC(=O)[C@@H](CCC(=O)O)NC(=O)[C@@H](CCC(=O)O)NC(=O)[C@H](N)CCC(=O)O)C(=O)O)CCN(CC2)CC(=O)[O][Ga+][O]C(=O)C3)C(=O)N[C@@H](Cc2ccc(O)cc2)C(=O)N[C@H](Cc2c[nH]c3ccccc23)C(=O)N[C@@H](CCCCN)C(=O)N[C@@H]([C@@H](C)O)C(=O)N1)C(=O)O [[Ga]07, H-D-Glu-D-Glu-D-Glu-D-Dap(N-SiFAlin-N,N-Me2-Gly)-D-Lys(trans-[^natGa] DOTA-TATE)-OH]",LogDpH=7.4,−2.30 ± 0.04
"C[C@@H](O)[C@H](NC(=O)[C@@H]1CSSC[C@H](NC(=O)[C@@H](Cc2ccccc2)NC(=O)CN2CCN(CC(=O)O)CCN(CC(=O)NCCCC[C@@H](NC(=O)[C@@H](CNC(=O)C[N+](C)(C)Cc3ccc([Si](F)(C(C)(C)C)C(C)(C)C)cc3)NC(=O)[C@@H](CCCNC(N)=O)NC(=O)[C@@H](CCCNC(N)=O)NC(=O)[C@H](N)CCCNC(N)=O)C(=O)O)CCN(CC(=O)O)CC2)C(=O)N[C@@H](Cc2ccc(O)cc2)C(=O)N[C@H](Cc2c[nH]c3ccccc23)C(=O)N[C@@H](CCCCN)C(=O)N[C@@H]([C@@H](C)O)C(=O)N1)C(=O)O [[Ga]03, H-D -Cit-D -Cit-D -Cit-D-Dap(N-SiFAlin-N,N-Me2-Gly)-D-Lys(trans-[na′Ga] DOTA-TATE)-OH]",LogDpH=7.4,−2.27 ± 0.04
